Source: patent publication US9951033B2, “Tertiary amines for use in the treatment of cardiac disorders” (Universitetet I Oslo, priority 2012, dated 2018)

Molecular target: GST-AKAP18δ: PLB-biotin interaction (Rattus norvegicus (Rat), UniProt Q6JP77)
Assay: AKAP18δ-PLB AlphaScreen assay
Assay type: binding
Details: not given
Procedure: Stable and optimal assay conditions were determined by cross-titrating GST-AKAP18 δ and biotinylated PLB using 10 μg/ml glutathione acceptor beads and 10 μg/ml streptavidin donor beads in an AlphaScreen assay. The excitation wavelength was 680 nm, with the emission wavelength being 520-560 nm. Signal intensity in each well was registered and the optimal concentration to use was chosen to be the concentration prior to the peak of the signal.
Concentrations to give a reliable signal were determined to be between 2 and 16 nM for AKAP18δ-GST and 4 and 20 nM PLB-biotin for relevant preparations of protein, for example 4 nM and 20 nM, respectively.

GST-AKAP18δ: PLB-biotin interaction, sequence (Q6JP77 whole entry): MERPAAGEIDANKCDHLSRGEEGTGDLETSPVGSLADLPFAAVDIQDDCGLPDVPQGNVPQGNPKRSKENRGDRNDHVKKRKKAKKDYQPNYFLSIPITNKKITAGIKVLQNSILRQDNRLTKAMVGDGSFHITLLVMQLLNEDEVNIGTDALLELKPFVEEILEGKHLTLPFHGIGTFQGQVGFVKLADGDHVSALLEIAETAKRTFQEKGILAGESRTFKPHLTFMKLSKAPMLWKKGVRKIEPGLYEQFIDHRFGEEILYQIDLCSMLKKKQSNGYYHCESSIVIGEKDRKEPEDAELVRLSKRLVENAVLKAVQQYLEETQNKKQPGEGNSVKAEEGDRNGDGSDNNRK

With Oc1ccc(O)c(CN(Cc2ccncc2)Cc2ccc(F)cc2)c1 [Example 3b] the EC50 was “approximately the same as for 2b”.

Same assay, conditions: average ± standard deviation (n = 3) or ± half range (n = 2); read-out: EC50 (n)

Going from CN(C)c1ccc(CN(Cc2ccccc2)Cc2ccc3c(c2)CCO3)cc1 [Example 3d] to CN(C)c1ccc(CN(Cc2ccccc2)CC(c2ccccc2)c2ccccc2)cc1 [Example 3c], the EC50 falls from 2.45 ± 0.73 µM to 0.44 ± 0.18 µM (5.6-fold). The second is the more potent here.

Going from Oc1ccc(O)c(CN(Cc2ccncc2)Cc2ccc(F)cc2)c1 [Example 3b] to Fc1ccc(CN(Cc2ccccc2)Cc2ccc(-c3ccccc3-c3nn[nH]n3)cc2)cc1 [Example 3g], the EC50 rises from 5.43 ± 1.11 µM to 47.1 µM (8.7-fold).

Same assay, conditions: average ± standard deviation (n = 3) or ± half range (n = 2); read-out: EC50 in μM (n)

First: CN(C)c1ccc(CN(Cc2ccccc2)Cc2ccc(N(C)C)cc2)cc1 [Example 2g]
Second: Oc1ccc(O)c(CN(Cc2ccncc2)Cc2cc(O)ccc2O)c1 [Example 2b]
The EC50 of the first is 7.2-fold lower: 1.7 ± 0.91 µM for the first, 12.3 ± 3.08 µM for the second.

Same assay, conditions: read-out: EC50

Compared with CN(C)c1ccc(CN(Cc2ccccc2)Cc2ccc3c(c2)CCO3)cc1 [Example 3d], CN(C)c1ccc(CN(Cc2ccccc2)CC(c2ccccc2)c2ccccc2)cc1 [Example 3c] is 8.5-fold lower in EC50: 2.79 µM for the first, 0.327 µM for the second.

With Fc1ccc(CN(Cc2ccccc2)Cc2ccc(-c3ccccc3-c3nn[nH]n3)cc2)cc1 [Example 3g] the EC50 was 47.1 µM.

Same assay, conditions: screening of compound library; read-out: EC50

Going from CC(C)(C)c1ccc(CN(Cc2ccc(F)cc2)Cc2nc(C(=O)O)cs2)cc1 to Cc1ccc(CN(Cc2ccc(F)cc2)Cc2nc(C(=O)O)cs2)cc1, the EC50 rises from 41.6 µM to 137 µM (3.3-fold). The first is the more potent here.

Compared with Nc1ccc(CN(Cc2ccccc2)Cc2ccc(N)cc2)cc1, Nc1ccc(CN(Cc2ccc(N)cc2)Cc2ccc(N)cc2)cc1 is 5.8-fold higher in EC50: 3.8 µM for the first, 22.2 µM for the second.

Going from O=C(Nc1ccc(F)cc1)Nc1ccc(CN(Cc2ccccc2)Cc2ccc(NC(=O)Nc3ccc(F)cc3)cc2)cc1 to Cc1ccc(NC(=O)Nc2ccc(CN(Cc3ccccc3)Cc3ccc(NC(=O)Nc4ccc(C)cc4)cc3)cc2)cc1, the EC50 falls from 9.3 µM to 2.5 µM (3.7-fold). The second is the more potent here.

O=C(Nc1ccccc1)Nc1ccc(CN(Cc2ccccc2)Cc2ccc(NC(=O)Nc3ccccc3)cc2)cc1 and Cc1ccc(NC(=O)Nc2ccc(CN(Cc3ccc(NC(=O)Nc4ccccc4)cc3)Cc3ccc(NC(=O)Nc4ccc(C)cc4)cc3)cc2)cc1 are within 1.5-fold of each other in EC50: 3.6 µM for the first, 5.2 µM for the second.

Compared with Cc1ccc(CN(Cc2cccc(C(F)(F)F)c2)Cc2nc(C(=O)O)cs2)cc1, O=C(O)c1csc(CN(Cc2ccc(F)cc2)Cc2cccc(C(F)(F)F)c2)n1 is 1.6-fold lower in EC50: 98.3 µM for the first, 60.5 µM for the second.

Compared with O=C(O)c1csc(CN(Cc2ccc(F)cc2)Cc2ccc(OCc3ccccc3)cc2)n1, COc1ccc(CN(Cc2ccc(F)cc2)Cc2nc(C(=O)O)cs2)cc1 is 1.5-fold lower in EC50: 39.5 µM for the first, 25.6 µM for the second.

Going from Cc1ccc(CN(CCC(c2ccccc2)c2ccccc2)Cc2nc(C(=O)O)cs2)cc1 to O=C(O)c1csc(CN(CCC(c2ccccc2)c2ccccc2)Cc2ccc(F)cc2)n1, the EC50 falls from 35.4 µM to 18 µM (2-fold). The second is the more potent here.

Going from O=C(O)c1csc(CN(Cc2cccc(C(F)(F)F)c2)Cc2ccccc2F)n1 to O=C(O)c1csc(CN(Cc2ccc(F)cc2)Cc2cccc(Cl)c2)n1, the EC50 falls from 216 µM to 36.4 µM (5.9-fold).

CN(C)c1ccc(CN(Cc2ccccc2)Cc2ccc(N(C)C)cc2)cc1 [drawing 177] and CCN(CC)c1ccc(CN(Cc2ccccc2)Cc2ccc(N(CC)CC)cc2)cc1 are within 1.5-fold of each other in EC50: 2 µM for the first, 2.9 µM for the second.

Going from O=[N+]([O-])c1ccc(CN(Cc2ccccc2)Cc2ccc([N+](=O)[O-])cc2)cc1 to O=C(O)c1ccc(CN(Cc2ccccc2)Cc2ccc(C(=O)O)cc2)cc1, the EC50 rises from 7.5 µM to 29.6 µM (3.9-fold).

First: O=C(O)c1csc(CN(Cc2ccc(F)cc2)Cc2ccc(Cl)cc2)n1
Second: CC(C)(C)c1ccc(CN(CCC(c2ccccc2)c2ccccc2)Cc2nc(C(=O)O)cs2)cc1
The EC50 of the first is 4.5-fold higher: 94.3 µM for the first, 21.1 µM for the second.

Work on O=C(O)c1csc(CN(CCC(c2ccccc2)c2ccccc2)Cc2ccccc2F)n1 yielded an EC50 of 10.6 µM.

Tested on: not listed separately
Assay: Aqueous solubility of tribenzylamine and salts quantified by HPLC (AUC)
Assay type: physicochemical
Details: free base in water
Procedure: Tribenzylamine and the corresponding salts were dissolved in water and the solubility was quantified (area under curve (AUC)) by HPLC

In the case of c1ccc(CN(Cc2ccccc2)Cc2ccccc2)cc1 [tribenzylamine, Tribenzylamine], the “AUC Free base” value is reported as “≈0 mAu*s”.

Tested on: PLB-Ser16 phosphorylation
Assay: PLB-Ser16 phosphorylation in rat neonatal cardiomyocytes after isoproterenol stimulation (western blot)
Assay type: cell-based
Details: 24 hours prior to isoproterenol 100 nM, 5 minutes
Procedure: Based on data from studies in cardiomyocytes assay using a peptide that blocks AKAP18δ-PLB interaction, it was expected that effective compounds would also cause disruption of the AKAP18δ-PLB complex and decrease PLB-Ser^16 phosphorylation (Lygren et al. in EMBO Reports, volume 8, issue 11, page 1061-1067 (2007). A small selection of hits from the derivatized compounds were tested in this cell-based assay, performed as described in Lygren et al.
Briefly, compounds were added to primary cultures of rat neonatal cardiomyocytes were added compounds about 24 hour prior stimulation with isoproterenol, and amount of phosphorylated Ser^16-PLB was analyzed by western blotting using a pSer^16-PLB phosphospecific antibody. Actin was used as a loading control.
Rat neonatal cardiomyocytes treated with compounds 24 hours prior stimulation with isoproterenol (100 nM, 5 minutes).
Following on Example 53, two compounds, 2g and 3d (FIGS. 9A,B and 9C, respectively), were tested in more detail for their ability to interfere with phosphorylation of phospholamban after stimulation of neonatal (FIGS. 9A and 9C) or adult (FIG. 9B) primary cultures of cardiomyocytes.

With CN(C)c1ccc(CN(Cc2ccccc2)Cc2ccc3c(c2)CCO3)cc1 [Example 3d] the “effect on PLB phosphorylation in cardiomyocytes” value was “did not appear to have an effect”.
In the case of O=C(O)c1ccc(CN(Cc2ccccc2)Cc2ccc(F)cc2)cc1 [Example 3f], the “effect on PLB phosphorylation in cardiomyocytes” value is reported as “did not appear to have an effect”.
In the case of CN(C)c1ccc(CN(Cc2ccccc2)CC(c2ccccc2)c2ccccc2)cc1 [Example 3c], the “effect on PLB phosphorylation in cardiomyocytes” value is reported as “somewhat weaker than that of 2g”.
With CN(C)c1ccc(CN(Cc2ccccc2)Cc2ccc(N(C)C)cc2)cc1 [Example 2g] the “effect on PLB phosphorylation in cardiomyocytes” value was “concentration dependent inhibition of PLB-phosphorylation”.

For O=C(O)c1ccc(CN(Cc2ccccc2)Cc2ccc(F)cc2)cc1 [Example 3f], the “Effect on PLB phosphorylation in cardiomyocytes” value was “+”.
For CN(C)c1ccc(CN(Cc2ccccc2)CC(c2ccccc2)c2ccccc2)cc1 [Example 3c], the “Effect on PLB phosphorylation in cardiomyocytes” value was “+”.
In the case of CN(C)c1ccc(CN(Cc2ccccc2)Cc2ccc(N(C)C)cc2)cc1 [Example 2g], the “Effect on PLB phosphorylation in cardiomyocytes” value is reported as “++”.
For Oc1ccc(O)c(CN(Cc2ccncc2)Cc2cc(O)ccc2O)c1 [Example 2b], the “Effect on PLB phosphorylation in cardiomyocytes” value was “−”.

Tested on: metabolically active cells
Assay: Cell viability luminescence assay
Assay type: cell-based
Details: not given
Procedure: Compound toxicity was measured in a luminescence assay that gives a signal proportional to the amount of metabolically active cells in the sample; the assay was performed as described by the supplier. All synthesized compounds were tested in the viability assay, and viability was registered at 24 hours and 72 hours.

Compared with CC(c1ccccc1)N(Cc1ccc(N(C)C)cc1)Cc1ccc(N(C)C)cc1 (stereo not shown) [Example 2h], CN(C)c1ccc(CN(Cc2ccccc2)Cc2ccc(N(C)C)cc2)cc1 [Example 2g] is lower in “Viability (100 μM) 24 hours” value: 0.91 for the first, 0.56 for the second.

Compared with CN(C)c1ccc(CN(Cc2ccccc2)Cc2ccc3c(c2)CCO3)cc1 [Example 3d], O=C(O)c1ccc(CN(Cc2ccccc2)Cc2ccc(F)cc2)cc1 [Example 3f] is higher in “Viability (100 μM) 24 hours” value: 0.58 for the first, 0.98 for the second.

Going from CN(C)c1ccc(CN(Cc2ccccc2)CC(c2ccccc2)c2ccccc2)cc1 [Example 3c] to Fc1ccc(CN(Cc2ccccc2)Cc2ccc(-c3ccccc3-c3nn[nH]n3)cc2)cc1 [Example 3g], the “Viability (100 μM) 24 hours” value rises from 0.74 to 0.80.

Compared with Fc1ccc(CN(Cc2ccncc2)Cc2ccc(F)cc2)cc1 [Example 2a], CC(C)(C)c1ccc(CN(Cc2ccncc2)Cc2ccc(F)cc2)cc1 [Example 3a] is lower in “Viability (100 μM) 24 hours” value: 0.85 for the first, 0.79 for the second.

First: Oc1ccc(O)c(CN(Cc2ccncc2)Cc2ccc(F)cc2)c1 [Example 3b]
Second: Oc1ccc(O)c(CN(Cc2ccncc2)Cc2cc(O)ccc2O)c1 [Example 2b]
The “Viability (100 μM) 24 hours” value of the first is lower: 0.03 for the first, 0.10 for the second.

Going from COC(=O)c1ccc(CN(Cc2ccccc2)Cc2ccc(C(=O)OC)cc2)cc1 [Example 2f] to COC(=O)c1ccc(CN(Cc2ccccc2)Cc2ccc(F)cc2)cc1 [Example 3e], the “Viability (100 μM) 24 hours” value falls from 0.92 to 0.57.

Molecular target: SERCA2 (Rattus norvegicus (Rat), UniProt P11507)
Assay: Patch clamp based SERCA2 activity in adult rat cardiomyocytes
Assay type: cell-based
Details: mesylate salt, 10 uM, in the presence of cAMP
Procedure: Adult rat cardiomyocytes were isolated and perfused with external solution (NaCl 125, CsCl 20, D-glucose 5, MgCl2 1, CaCl2 1.8, Hepes 10, 4-aminopyridine 5, probenecid 2, pH 7.4 by NaCH). Cell dialysis was achieved by 1-2 MΩ patch pipettes, filled with (in mM): CsCl 115, TEACl 20, Hepes 10, MgATP 5, Na2-Phosphocreatinine 5, EGTA 0.04, cAMP 0.005, adjusted to pH=7.2 with CsOH. Compound 2g (mesylate salt dissolved in water) was included at a concentration of 10 uM. Whole-cell Ca fluorescence measured from voltage-clamped cells was performed with Cairn Research Optoscan Monochromator (Excitation 488 nm, emission 515 nm long pass) (Cain Research Ltd., Faverham, UK). By applying 100 ms square voltage step from −45 to 0 mV at 0.125 Hz by an Axociamp 2B amplifier (Axon Instruments, Foster City, Calif., USA), basal Ca transients were recorded, and tau values were obtained by monoexponential fitting of the Ca^2+ extrusion phase from regular transients (τ) and caffeine transients (τcaff) after rapid applications of 10 mM caffeine. SERCA2 rate constant were calculated as: k_SERCA=1/τ−1/τcaff.

With CN(C)c1ccc(CN(Cc2ccccc2)Cc2ccc(N(C)C)cc2)cc1 [Example 2g] the SERCA2 activity was “increased SERCA2 activity”.
